Assay results from patent publication US20200009185A1, “METHOD FOR MAINTAINING INCREASED […] p53 LEVEL, INDUCED BY […]-BASED […] DRUG, AND APPLICATION THEREOF” (priority 2015, published 2020).

What was measured:
CaSki cells [1] = experiment: Western blot of TP53, RB, E6, E7 at time points (Example 1-4); type: cell-based, human; conditions: CaSki cells transformed with HPV E6/E7 siRNA then treated with cisplatin; FIG. 1D, 1E
Description: (§1) Cell lysates were then obtained and subjected to western blotting.
(§2) In western blotting, antibodies of Santa Cruz Biotechnology ([…], Calif.) were used for TP53 [DO7], HPV 18-E6 [G7], HPV 16-E6 [C1P5], HPV 18-E7 [F7], HPV 16-E7 [ED17], E2F-1 [KH195], Cyclin-E [M20], β-Actin [C4] and antibody of BD Pharmingen was used for RB [554164], antibody of cell signaling was used for phospho-TP53 (ser-15) [9284].

Hela cells [2] = experiment: as above; type: cell-based, human; conditions: Hela cells transformed with HPV E6/E7 siRNA then treated with cisplatin; FIG. 1D, 1E
Description: as §1, §2

[3] = tested on: cervical cancer cell lines; experiment: Expression level of intracellular p53 over time in cervical cancer cell lines; type: cell-based
CaSki cells [4] = experiment: WST cell viability analysis (Example 1-2); type: cell-based, human; conditions: CaSki cells transformed with HPV E6/E7 siRNA, 10 μM cisplatin 24 hours, vs group not treated with cisplatin; FIG. 1B
Protocol: (§3) WST analysis was performed to confirm cell viability.
(§4) Cell counts were determined by water soluble tetrazolium salts (WST) (EZ-Cytox kit; Daeil Lab Service, Seoul, Korea). EZ-Cytox solution (50 μl) added to each well of a 12-well plate and incubated for 2 to 3 hours. Live cells were measured (485 nm) using a GENios Pro microplate reader (Tecan Trading AG, Mannedorf, Switzerland) in a 96-well plate.

Hela cells [5] = experiment: WST cell viability analysis (Example 1-2); type: cell-based, human; conditions: Hela cells transformed with HPV E6/E7 siRNA, 10 μM cisplatin 24 hours, vs group not treated with cisplatin; FIG. 1B
Protocol: as §3, §4

Hela cells [6] = experiment: Western blot of TP53 and HPV E6/E7 after HPV E6/E7 siRNA and cisplatin (Example 1-1); type: cell-based, human; conditions: Hela cells transformed with HPV E6/E7 siRNA, 10 μM cisplatin for 24 hours; FIG. 1A
Protocol: Cervical cancer cell and HeLa cervical cancer cell lines (HeLa; ATCC CCL-2) infected with HPV type 18 virus and SiHa cervical cancer cell lines (SiHa; ATCC HTB-35) infected with HPV type 16 virus were plated on a 6-well plate with 5×10^4 or 1×10^5 cells and cultured in RPMI 1640 or DMEM medium for 24 hours at 37° C. and 5% carbon dioxide, respectively. siRNA intracellular transfection was performed with DharmaFect (Dharmacon, Lafayette, Colo., USA) according to manufacturer's instructions.
HeLa cervical carcinoma cells infected with HPV type 18 virus were transformed by pooling with each of siRNAs of 426 and 450 sequences, or respectively. The HPV type 16 virus-infected siHa cell line was transformed by pooling siRNAs of 366, 448 and 497 sequences, or respectively.
In the Western blot, whole-cell lysate was extracted with RIPA buffer (10 mM Tris ([…]), 0.15 M NaCl, 5 mM EDTA, 1% Triton X-100, 0.5% deoxycholic acid sodium salt and 0.1% SDS). After centrifugation, the protein concentration of the supernatant was measured using a BCA protein assay kit (Thermo Fisher Scientific Inc). Protein samples were placed in sample buffer and boiled for 5 minutes for complete denaturation. The samples were then applied to 6%, 10%, or 15% polyacrylamide gels and transferred to a 0.4 μm PVDF membrane (Milipore, Bilerica). […] Finally, the expression level of the protein was detected using ECL solution. […]

CaSki cells [7] = experiment: TP53 and E2F luciferase reporter assay (Example 1-3); type: cell-based, human; conditions: CaSki cells treated with cisplatin and HPV E6/E7 siRNA; FIG. 1C
Protocol: (§5) The above luciferase reporter vector system was purchased from Clontech pathway profiling system (Mountain View, Calif., USA). Luciferase assay was performed using Dual-Luciferase Reporter Assay System (Promega) after 24 hours of transfection, and luminescence activity was measured using a GENios Pro microplate reader (Tecan Trading AG, Mannedorf, Switzerland).

Hela cells [8] = experiment: as above; type: cell-based, human; conditions: Hela cells treated with cisplatin and HPV E6/E7 siRNA; FIG. 1C
Protocol: as §5

[9] = tested on: human cervical cancer cells; experiment: Tumor growth in animal model transplanted with human cervical cancer cells; type: in vivo; conditions: low concentration of cisplatin
CaSki cells [10] = experiment: Western blot of TP53 and HPV E6/E7 after HPV E6/E7 siRNA and cisplatin (Example 1-1); type: cell-based, human; conditions: CaSki cells transformed with HPV E6/E7 siRNA, 10 μM cisplatin for 24 hours; FIG. 1A

Structure (SMILES): N.N.[Cl][Pt][Cl] [cisplatin, cis-diamminedichloroplatinum [II]]
- expression level of TP53 (CaSki cells [1]): increased
- expression level of pRB (CaSki cells [1]): increased
- expression levels of 16-E6 and 16-E7 (CaSki cells [1]): decreased
- expression level of TP53 (Hela cells [2]): increased
- expression level of pRB (Hela cells [2]): increased
- expression levels of 18-E6 and 18-E7 (Hela cells [2]): decreased
- expression level of intracellular p53 [3]: in the form of a pulse and repeatedly increased and decreased
- cell viability (CaSki cells [4]): decreased
- cell viability (Hela cells [5]): decreased
- amount of HPV E6/E7 protein expression (Hela cells [6]): not observed
- amount of TP53 expression (Hela cells [6]): increased
- activity of E2F (luciferase reporter) (CaSki cells [7]): further decrease
- activity of TP53 (luciferase reporter) (CaSki cells [7]): increase
- activity of E2F (luciferase reporter) (Hela cells [8]): further decrease
- activity of TP53 (luciferase reporter) (Hela cells [8]): increase
- tumor growth inhibitory effect [9]: no tumor growth inhibitory effect
- amount of HPV E6/E7 protein expression (CaSki cells [10]): not observed
- amount of TP53 expression (CaSki cells [10]): increased
